# Assay results as given in publication PMC7966987, “Insights into the catalytic properties of the mitochondrial rhomboid protease PARL” (The Journal of Biological Chemistry, 2021).
# How the values were obtained:
# Format in all cases: biochemical
# [1] = target: T1, PARLΔ77 (Homo sapiens, UniProt Q9H300); assay: IQ-peptide substrate cleavage kinetics, β-cleavage PARLΔ77 in detergent; details: PARLΔ77 0.8 μM in 0.1% DDM with CL, 50 mM Tris-HCl pH 7.0, 150 mM NaCl, 10% glycerol, 5% DMSO, 37 °C, fluorescence; mean ± SEM
# T1 construct: GFP-hexahistidine (behind a TEV cleavage site) (C, cleaved yes); made in house; host or cells: Pichia pastoris
# T1 sequence (Q9H300 78-379): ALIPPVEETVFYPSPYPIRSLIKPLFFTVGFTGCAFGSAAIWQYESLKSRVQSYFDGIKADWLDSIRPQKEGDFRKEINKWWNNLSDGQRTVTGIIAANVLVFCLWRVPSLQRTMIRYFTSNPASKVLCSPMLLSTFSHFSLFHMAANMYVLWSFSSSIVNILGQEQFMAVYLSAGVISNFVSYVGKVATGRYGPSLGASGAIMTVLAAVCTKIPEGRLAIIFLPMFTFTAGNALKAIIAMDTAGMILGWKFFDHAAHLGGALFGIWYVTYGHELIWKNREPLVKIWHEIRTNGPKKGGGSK
# Source text: (§1) To further evaluate the cleavage of other known substrates of PARL, we adopted a more facile system to examine cleavage of multiple substrates and generated internally quenched (IQ) peptide substrates ([25], [36], [37], [38]) based on the amino acids flanking the PARL cleavage sites of PINK1 ([39]), PGAM5 ([8]), and Smac/Diablo ([11]). […] The assay allowed us to determine the catalytic parameters for the three primary PARL substrates and examine the substrate specificity (Fig. 2, Tables S2–S4).
# (§2) Assays with FRET-PINK1^70–134 were conducted as previously described ([26]). For EDANS/Dabcyl 10-mer IQ peptides (PINK1, PGAM5, Smac/Diablo), lyophilized peptides were initially dissolved in DMSO to obtain a stock solution. The IQ peptide substrates in a concentration range of 0.1–70 μM were incubated with activity assay buffer (50 mM Tris-HCl pH 7.0, 150 mM NaCl, 10% glycerol, 0.1% DDM) in a 384-well black-bottomed plate at 37 °C for 30 min in a multiwell plate reader (SynergyMx, BioTek). For all concentrations of IQ peptide, the DMSO was kept constant at 5%. Following preincubation, PARL was added to a final concentration of 0.8 μM to initiate the cleavage reaction. Fluorescence readings were taken every 3 min over a 3 h time course at ƛex = 336 nm and ƛem = 490 nm. The initial velocity was determined from the fluorescence readings over the time course. For each substrate concentration, a no-enzyme control was subtracted to eliminate background fluorescence changes not related to substrate cleavage. Relative fluorescence units were converted to concentration (μM) by determining the maximum change in fluorescence observed for each substrate concentration when fully digested. GraphPad Prism software was used for Michaelis–Menten analysis of kinetic curves. All kinetic data were obtained using at least three biological replicates (different enzyme preparations) with technical duplicates for each experiment. For kinetic measurements in detergent with all three substrates, the activity assays were repeated at least five times. In addition, after each protease purification, the quality control of purified PARL was controlled by measuring its enzymatic activity. Minimum of three experimental replicates with two technical replicates were used for data analysis.
# [2] = system: human PARLΔ77; assay: as above; details: for fold change Km/kcat, PARLΔ77/PARLΔ55 / fold change kcat, PARLΔ77/PARLΔ55: PARL in DDM; for turnover rate with PARLΔ77 compared with PARLΔ55 / ranking of substrate cleavage: in detergent; for ranking of substrate cleavage: PARLΔ55 and PARLΔ77, by kcat or kcat/KM
# Source text: as §1, §2
# [3] = target: T1, PARLΔ77; assay: IQ-peptide substrate cleavage kinetics, PARLΔ77 in POPE/POPC proteoliposomes lacking CL; details: pH 7.0, 37 °C, mean ± SEM, n=3
# Source text: To examine if CL influences PARL activity in a membrane environment, we prepared PL samples containing β-truncated PARL and conducted detailed kinetic analysis with the three IQ-peptide substrates (Fig. 3B). Two independent PL samples were generated: the first consisted only of POPC and POPE, while the second also contained CL. […] When CL was omitted from the PL, we observed two to tenfold slower turnover rates of cleavage for IQ-peptide substrates by β-truncated PARL (Fig. 3B and Table S7).
# as §2
# E. coli polar lipids (Avanti), 400 μg in chloroform, were dried under nitrogen stream in a glass tube to yield a thin film of lipid. The tube was incubated overnight in a desiccator to completely remove all traces of solvent. In total, 50 μl of water and DDM detergent was added to the lipid film for resuspension at room temperature for 10 min, followed by the addition of purified PARL (400 μg) in 50 mM Tris-HCl, pH 8.0, 150 mM NaCl, 20% glycerol, 0.1% DDM, to yield the final weight ratio of 1 PARL:1 lipid:2 detergent. The detergent was slowly removed by the addition of SM2 Biobeads (Bio-Rad) while stirring on ice for 6 h to allow for the generation of proteoliposomes (PL); the process was controlled by the regimen of Biobead addition. To purify the PL, 50%:20% sucrose density gradient ultracentrifugation was used. A TAMRA probe (ThermoFisher) was used to determine the orientation of reconstituted PARL, which specifically and covalently labels serine residues of an enzymatically active serine protease. In total, 2 μM of TAMRA probe was added to PL samples and incubated for 1 h, allowing the TAMRA probe to label only the outward-facing accessible active sites. The same amount of PL, but with 1% DDM added to dissolve lipid vesicles incubated with 2 μM of TAMRA probe at the same conditions, was used as a benchmark for 100% accessible protein amount. The reaction was quenched with addition of SDS-containing sample buffer and the protein samples were visualized with SDS-PAGE followed by fluorescent gel scanning. The bands were quantified by densitometry analysis. […]
# [4] = target: T1, PARLΔ77; assay: IQ-peptide substrate cleavage kinetics, PARLΔ77 in proteoliposomes; details: PARLΔ77 in PLs (E. coli polar lipids), 50 mM Tris-HCl pH 7.0, 150 mM NaCl, 10% glycerol, no DDM, 37 °C, mean ± SEM
Substance,Km [1] [µM],kcat (turnover rate) [1] [s⁻¹],kcat/KM (catalytic efficiency) [1] [M⁻¹ s⁻¹],"fold change Km/kcat, PARLΔ77/PARLΔ55 [2] [fold]","fold change kcat, PARLΔ77/PARLΔ55 [2] [fold]",turnover rate with PARLΔ77 compared with PARLΔ55 [2],Km [3] [µM],kcat (turnover rate) [3] [s⁻¹],kcat/KM (catalytic efficiency) [3] [M⁻¹ s⁻¹],Km [4] [µM],kcat (turnover rate) [4] [s⁻¹],kcat/KM (catalytic efficiency) [4] [M⁻¹ s⁻¹],ranking of substrate cleavage [2],kcat/KM (catalytic efficiency) ([4]; listed as PGAM5) [M⁻¹ s⁻¹],kcat/KM (catalytic efficiency) ([4]; listed as PGAM520-29) [M⁻¹ s⁻¹],turnover rate with PARLΔ77 compared with PARLΔ55 ([2]; listed as IQ-Smac/Diablo),turnover rate with PARLΔ77 compared with PARLΔ55 ([2]; listed as Smac/Diablo),kcat (turnover rate) ([4]; listed as Smac/Diablo) [s⁻¹],kcat (turnover rate) ([4]; listed as Smac/Diablo51-60) [s⁻¹]
"(DABCYL)-AVFLAFGLGL-Glu(EDANS) [IQ-PINK1^99–108, internally quenched DABCYL/EDANS peptide substrate based on PINK1 PARL cleavage site]",3.3 ± 0.5,0.000361 ± 2.8e-05,110 ± 28,2,3,increased,14 ± 5,0.0019 ± 0.00028,140 ± 56,8 ± 1,0.00778 ± 0.00056,972 ± 170,–,–,–,–,–,–,–
"(DABCYL)-AVFLSAVAVG-Glu(EDANS) [IQ-PGAM5^20–29, internally quenched DABCYL/EDANS peptide substrate based on PGAM5 PARL cleavage site]",1.6 ± 0.2,0.000272 ± 1.1e-05,170 ± 28,0.6,2,increased,8 ± 3,0.0025 ± 0.00056,278 ± 83,0.8 ± 0.2,0.00583 ± 0.00028,–,most efficiently cleaved,7220 ± 2200,7220 ± 2200,–,–,–,–
"(DABCYL)-GVT LCAVPIA-Glu(EDANS) [IQ-Smac/Diablo^51–60, internally quenched DABCYL/EDANS peptide substrate based on Smac/Diablo PARL cleavage site]",5 ± 1,0.000333 ± 2.8e-05,83 ± 28,1,1,–,3.8 ± 1,0.00133 ± 8.3e-05,333 ± 83,17 ± 4,–,944 ± 280,fastest cleaved,–,–,no significant difference,remained unchanged,0.0161 ± 0.0019,0.0161 ± 0.0019
